ChEMBL document CHEMBL1201862, “PubChem BioAssay data set” (2004)
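The compound was tested at five concentrations on cells cultured in 96-well plates, with a 48-hour exposure period. GI50: concentration for 50% inhibition of growth.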 The source made the active and inactive calls. Cut-off read from the data, not from the text of the source: active = GI50 up to about 1.1 µM and inactive = higher.

Key:
Experiment in all cases: NCI anticancer screen, dose series, 48 h
NCI-H226 = system: NCI-H226
Hs-578T = system: Hs-578T
UACC-62 = system: UACC-62
TK-10 = system: TK-10
SK-MEL-28 = system: SK-MEL-28
T47D = system: T47D
A549 = system: A549
IGROV-1 = system: IGROV-1
M14 = system: M14
MOLT-4 = system: MOLT-4
UO-31 = system: UO-31
RPMI-8226 = system: RPMI-8226
KM12 = system: KM12
NCI/ADR-RES = system: NCI/ADR-RES
A498 = system: A498
HCC 2998 = system: HCC 2998
U-251 = system: U-251
SK-MEL-5 = system: SK-MEL-5

Row | SMILES | GI50 (NCI-H226) | GI50 (Hs-578T) | GI50 (UACC-62) | GI50 (TK-10) | GI50 (SK-MEL-28) | GI50 (T47D) | GI50 (A549) | GI50 (IGROV-1) | GI50 (M14) | GI50 (MOLT-4) | GI50 (UO-31) | GI50 (RPMI-8226) | GI50 (KM12) | GI50 (NCI/ADR-RES) | GI50 (A498) | GI50 (HCC 2998) | GI50 (U-251) | GI50 (SK-MEL-5)
1 | CC(=O)O[C@H]1C[C@H](O[C@H]2[C@@H](O)C[C@H](O[C@H]3[C@@H](O)C[C@H](O[C@H]4CC[C@@]5(C)[C@H](CC[C@@H]6[C@@H]5CC[C@]5(C)[C@@H](C7=CC(=O)OC7)CC[C@]65O)C4)O[C@@H]3C)O[C@@H]2C)O[C@H](C)[C@H]1O[C@@H]1O[C@H](CO)[C@@H](O)[C@H](O)[C@H]1O | 0.103 µM (active) | < 0.01 µM (active) | 0.132 µM (active) | 0.0174 µM (active) | 0.136 µM (active) | 0.0387 µM (active) | < 0.01 µM (active) | < 0.01 µM (active) | 0.0634 µM (active) | > 100 µM (inactive) | 0.0242 µM (active) | 0.0373 µM (active) | 0.065 µM (active) | < 0.0169 µM (active) | 0.0269 µM (active) | 0.0615 µM (active) | 0.032 µM (active) | 0.0237 µM (active)
2 | CC1CC[C@@]2(OC1)OC1C[C@H]3[C@@H]4CC[C@H]5CC(OC6OC(CO)C(OC7OC(CO)C(O)C(O)C7OC7OC(CO)C(O)C(O)C7O)C(O)C6O)CCC5(C)[C@H]4CCC3(C)C1[C@@H]2C (stereo not given in full) | 1.34 µM (inactive) | 1.99 µM (inactive) | 8.95 µM (inactive) | 1.61 µM (inactive) | 2.12 µM (inactive) | 2.16 µM (inactive) | 2.1 µM (inactive) | 1.04 µM (active) | 3.34 µM (inactive) | 1.29 µM (inactive) | 0.993 µM (active) | 1.88 µM (inactive) | 3.33 µM (inactive) | 6.38 µM (inactive) | 1.52 µM (inactive) | 1.04 µM (active) | 1.1 µM (active) | 6.89 µM (inactive)
3 | C#CCSC(C=C=C)P(=O)(OC(C)C)OC(C)C (stereo not given) | > 100 µM (inactive) | 12.9 µM (inactive) | > 100 µM (inactive) | 43.2 µM (inactive) | > 100 µM (inactive) | > 100 µM (inactive) | > 100 µM (inactive) | 45.7 µM (inactive) | > 100 µM (inactive) | 21.5 µM (inactive) | > 100 µM (inactive) | 30.3 µM (inactive) | > 100 µM (inactive) | > 100 µM (inactive) | 36.8 µM (inactive) | 28.4 µM (inactive) | > 100 µM (inactive) | > 100 µM (inactive)
4 | C#CCOCn1cc(C)c(=O)[nH]c1=O | > 100 µM (inactive) | > 100 µM (inactive) | > 100 µM (inactive) | > 100 µM (inactive) | > 100 µM (inactive) | > 100 µM (inactive) | > 100 µM (inactive) | > 100 µM (inactive) | > 100 µM (inactive) | > 100 µM (inactive) | > 100 µM (inactive) | > 100 µM (inactive) | > 100 µM (inactive) | > 100 µM (inactive) | > 100 µM (inactive) | > 100 µM (inactive) | > 100 µM (inactive) | > 100 µM (inactive)
5 | COc1cc(/C=N/n2c(-c3ccccc3)n[nH]c2=O)cc(OC)c1OC | > 41.3 µM (inactive) | 3.56 µM (inactive) | 2.34 µM (inactive) | 4.17 µM (inactive) | > 28 µM (inactive) | > 100 µM (inactive) | 4.95 µM (inactive) | 2.43 µM (inactive) | 6.08 µM (inactive) | 0.733 µM (active) | 5.71 µM (inactive) | 1.38 µM (inactive) | 0.425 µM (active) | 1.44 µM (inactive) | 3.15 µM (inactive) | > 100 µM (inactive) | 3.93 µM (inactive) | 0.815 µM (active)
6 | CN1CCCC(C(=O)OCC(=O)C2(O)CCC3C4CCC5=CC(=O)CCC5(C)C4C(O)CC32C)C1 (stereo not given) | 17.1 µM (inactive) | 35.3 µM (inactive) | 18.1 µM (inactive) | 12.5 µM (inactive) | 17.7 µM (inactive) | 10.3 µM (inactive) | 16.4 µM (inactive) | 23.4 µM (inactive) | 23.2 µM (inactive) | 18.7 µM (inactive) | 8.11 µM (inactive) | 4.23 µM (inactive) | 25.2 µM (inactive) | 20 µM (inactive) | 16.4 µM (inactive) | 7.89 µM (inactive) | 4.29 µM (inactive) | 19.1 µM (inactive)
7 | O=C(CSCC(=O)N/N=C/c1cccs1)N/N=C/c1cccs1 | 37.2 µM (inactive) | 61.1 µM (inactive) | > 100 µM (inactive) | > 100 µM (inactive) | > 100 µM (inactive) | > 100 µM (inactive) | > 100 µM (inactive) | 66.7 µM (inactive) | > 100 µM (inactive) | 64.7 µM (inactive) | 48.3 µM (inactive) | 42.4 µM (inactive) | > 100 µM (inactive) | 40 µM (inactive) | > 100 µM (inactive) | > 100 µM (inactive) | > 100 µM (inactive) | 76.4 µM (inactive)
8 | O=Cc1ccc(-c2ccc(-c3ccc(CO)s3)o2)s1 | 0.0681 µM (active) | 16 µM (inactive) | 0.151 µM (active) | 0.237 µM (active) | > 35.9 µM (inactive) | 2.21 µM (inactive) | 14.8 µM (inactive) | 0.547 µM (active) | 20.4 µM (inactive) | 2.92 µM (inactive) | 15.6 µM (inactive) | 1.54 µM (inactive) | 42.6 µM (inactive) | 10.6 µM (inactive) | 0.104 µM (active) | 3.22 µM (inactive) | 1.91 µM (inactive) | 5.48 µM (inactive)
9 | CCOc1cc2c(NCCCN(CCO)CCO)ncnc2c(OCC)c1OCC | 21.7 µM (inactive) | 82.2 µM (inactive) | > 100 µM (inactive) | > 100 µM (inactive) | > 62.5 µM (inactive) | > 90.4 µM (inactive) | > 94.4 µM (inactive) | > 100 µM (inactive) | > 83.2 µM (inactive) | > 87.1 µM (inactive) | > 100 µM (inactive) | > 100 µM (inactive) | > 100 µM (inactive) | > 100 µM (inactive) | > 73.5 µM (inactive) | 22 µM (inactive) | > 100 µM (inactive) | > 100 µM (inactive)
10 | CCCCCCCCCC[C@@H](O)[C@H]1CC[C@@H]([C@H]2CC[C@H]([C@H](O)CCCCCCCCCC[C@@H]3CC(CC(C)=O)C(=O)O3)O2)O1 (stereo not given in full) | 1 µM (active) | 1.04 µM (active) | 3.92 µM (inactive) | 4.73 µM (inactive) | 3.46 µM (inactive) | 1.7 µM (inactive) | 2.16 µM (inactive) | 8.28 µM (inactive) | 6.43 µM (inactive) | 4.13 µM (inactive) | 2.49 µM (inactive) | 2.39 µM (inactive) | 2.52 µM (inactive) | 0.167 µM (active) | 38 µM (inactive) | 19.1 µM (inactive) | 2.65 µM (inactive) | 0.01 µM (active)
11 | O=S(=O)(c1ccc(Br)cc1)n1c2ccc(Br)cc2c2nc3ccccc3nc21 | > 100 µM (inactive) | 47.6 µM (inactive) | 38.3 µM (inactive) | 82 µM (inactive) | > 100 µM (inactive) | 61.8 µM (inactive) | > 100 µM (inactive) | 78.7 µM (inactive) | > 100 µM (inactive) | > 100 µM (inactive) | > 100 µM (inactive) | > 100 µM (inactive) | > 100 µM (inactive) | > 100 µM (inactive) | > 100 µM (inactive) | > 100 µM (inactive) | 23.2 µM (inactive) | > 100 µM (inactive)
12 | O=C(NCCNCCNC(=O)c1cc(-c2ccccc2)nc2ccccc12)c1cc(-c2ccccc2)nc2ccccc12 | 2.91 µM (inactive) | 2.73 µM (inactive) | 2.09 µM (inactive) | 2.4 µM (inactive) | 1.77 µM (inactive) | 2.72 µM (inactive) | 3.37 µM (inactive) | 2.52 µM (inactive) | 1.6 µM (inactive) | 2.37 µM (inactive) | 2.64 µM (inactive) | 2.73 µM (inactive) | 1.91 µM (inactive) | 1.76 µM (inactive) | 2.7 µM (inactive) | 1.73 µM (inactive) | 2.08 µM (inactive) | 1.77 µM (inactive)
13 | C=CCC1(C)CCCN(Cc2ccccc2)C1=O (stereo not given) | > 10 µM (inactive) | > 10 µM (inactive) | > 10 µM (inactive) | > 10 µM (inactive) | > 10 µM (inactive) | > 10 µM (inactive) | > 10 µM (inactive) | 0.863 µM (active) | > 10 µM (inactive) | > 10 µM (inactive) | > 10 µM (inactive) | > 10 µM (inactive) | > 10 µM (inactive) | > 10 µM (inactive) | 1.32 µM (inactive) | > 10 µM (inactive) | > 10 µM (inactive) | 0.41 µM (active)
14 | O=C1c2sc(-c3ccc(Cl)cc3)cc2-n2cccc21 | > 100 µM (inactive) | > 100 µM (inactive) | > 100 µM (inactive) | > 100 µM (inactive) | > 100 µM (inactive) | > 100 µM (inactive) | > 100 µM (inactive) | > 100 µM (inactive) | > 100 µM (inactive) | > 100 µM (inactive) | > 100 µM (inactive) | > 100 µM (inactive) | > 100 µM (inactive) | > 100 µM (inactive) | > 100 µM (inactive) | > 100 µM (inactive) | > 100 µM (inactive) | > 100 µM (inactive)
15 | C=C1C(=O)O[C@@H]2/C=C(C)/C=C\[C@@H]3O[C@@]3(C)C[C@@H](O)C12 (stereo not given in full) | 9.1 µM (inactive) | 39.2 µM (inactive) | 12.9 µM (inactive) | 3.81 µM (inactive) | 19.9 µM (inactive) | 7.19 µM (inactive) | 47.5 µM (inactive) | 13 µM (inactive) | 18.3 µM (inactive) | 5.14 µM (inactive) | 12.4 µM (inactive) | 3.74 µM (inactive) | 15.5 µM (inactive) | 4.51 µM (inactive) | 15.8 µM (inactive) | 18.9 µM (inactive) | 17.8 µM (inactive) | 14.6 µM (inactive)
